The results in this text go back to patent US9023882B2, “5-membered nitrogen containing heterocyclic derivatives and pharmaceutical compositions comprising the same” (Kissei Pharmaceutical Co., Ltd., priority 2007, dated 2015).

Broadly, the IC50 is the concentration needed to halve the response being measured.

The target in one assay is Xanthine oxidase (from bovine milk, Sigma) (Bos taurus (Bovine), UniProt P80457). The experiment in a line: Xanthine oxidase inhibitory activity. To be noted: 100 μM xanthine final, absorbance at 290 nm. In kind it is biochemical. How it is done: (1) Preparation of Test Compounds
Chain of Xanthine oxidase (from bovine milk, Sigma) (P80457 whole entry): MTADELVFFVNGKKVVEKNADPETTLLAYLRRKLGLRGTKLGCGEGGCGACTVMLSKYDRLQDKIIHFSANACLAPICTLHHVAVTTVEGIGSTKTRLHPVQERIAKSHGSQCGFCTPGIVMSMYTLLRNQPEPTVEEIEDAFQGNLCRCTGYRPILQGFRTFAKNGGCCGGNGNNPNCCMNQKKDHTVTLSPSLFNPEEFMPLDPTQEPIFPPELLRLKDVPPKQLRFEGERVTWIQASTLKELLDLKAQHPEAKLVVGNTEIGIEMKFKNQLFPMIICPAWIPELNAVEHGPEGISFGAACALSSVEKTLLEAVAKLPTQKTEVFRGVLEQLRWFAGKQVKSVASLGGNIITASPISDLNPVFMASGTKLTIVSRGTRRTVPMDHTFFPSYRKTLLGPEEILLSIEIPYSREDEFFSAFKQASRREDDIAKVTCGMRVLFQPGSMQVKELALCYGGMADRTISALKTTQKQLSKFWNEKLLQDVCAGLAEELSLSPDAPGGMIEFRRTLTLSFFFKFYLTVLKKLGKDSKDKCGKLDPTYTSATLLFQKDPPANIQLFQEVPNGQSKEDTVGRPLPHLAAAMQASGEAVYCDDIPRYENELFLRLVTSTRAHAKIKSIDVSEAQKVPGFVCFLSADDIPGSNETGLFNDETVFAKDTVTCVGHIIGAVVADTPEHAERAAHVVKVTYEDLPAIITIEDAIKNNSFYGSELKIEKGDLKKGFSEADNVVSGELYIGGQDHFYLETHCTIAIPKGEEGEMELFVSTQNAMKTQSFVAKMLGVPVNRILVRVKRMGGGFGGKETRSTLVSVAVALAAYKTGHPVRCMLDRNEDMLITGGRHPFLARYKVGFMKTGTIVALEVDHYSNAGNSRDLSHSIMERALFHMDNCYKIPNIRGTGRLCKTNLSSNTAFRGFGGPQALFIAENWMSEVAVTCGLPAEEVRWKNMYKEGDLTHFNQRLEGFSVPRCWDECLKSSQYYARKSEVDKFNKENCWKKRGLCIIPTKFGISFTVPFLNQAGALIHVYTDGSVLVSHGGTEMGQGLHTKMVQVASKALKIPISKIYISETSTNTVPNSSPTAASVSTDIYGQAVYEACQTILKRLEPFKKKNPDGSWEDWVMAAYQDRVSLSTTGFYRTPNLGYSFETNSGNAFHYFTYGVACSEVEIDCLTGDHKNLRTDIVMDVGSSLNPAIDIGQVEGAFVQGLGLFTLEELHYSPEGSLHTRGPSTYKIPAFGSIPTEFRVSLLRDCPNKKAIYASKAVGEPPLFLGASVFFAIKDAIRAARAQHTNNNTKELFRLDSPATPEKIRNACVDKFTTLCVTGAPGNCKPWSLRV
Test compounds were dissolved in DMSO (Wako) at 40 mM concentration and then diluted to intended concentrations with phosphate-buffered saline (PBS).
(2) Method for Measurement
Xanthine oxidase (from bovine milk, Sigma) was prepared with phosphate-buffered saline (PBS) at 0.02 units/mL, and then the solution was added to 96 well plates at 50 μL/well. In addition, test compounds diluted with PBS were added at 50 μL/well. Xanthine (Wako) at 200 μM prepared with PBS was added at 100 μL/well, and the reaction was conducted for 10 minutes at room temperature. Absorbance at 290 nm was measured using a microplate reader SpectraMax Plus 384 (Molecular device). The absorbance under a condition without xanthine is 0%, and control without test compounds is 100%. Fifty % inhibitory concentration of a test compound (IC50) was calculated (Tables 91 to 92). Ex. No in the table indicates Example number.
`Cc1ccc(-c2cn(-c3ccc(C(=O)O)c(O)c3)cc2C#N)s1` [Example 310] came in with an IC50 of 17.5 nM.

For the compound `Cc1ccccc1-c1cn(-c2cc(C(=O)O)ccn2)cc1C#N` [Example 361], the IC50 was 88.5 nM.

For the compound `N#Cc1cn(-c2ccc(C(=O)O)c(O)c2)cc1-c1ccc(Cl)cc1` [Example 315], the IC50 amounted to 14.6 nM.

Regarding `O=C(O)c1ccc(-n2ccc([N+](=O)[O-])c2)cc1O` [Example 351], the half-maximal inhibitory concentration (IC50) was 14.7 nM.

As to `N#Cc1cn(-c2ccc(C(=O)O)c(O)c2)cc1Cc1ccccc1` [Example 357], the IC50 was 5.9 nM.

In turn, `N#Cc1cccc(-c2cn(-c3ccc(C(=O)O)c(O)c3)cc2C#N)c1` [Example 330] displayed an IC50 of 19.9 nM.

As for `Cc1cccc(-c2cn(-c3cc(C(=O)O)ccn3)cc2C#N)c1` [Example 362], the IC50 was 25.6 nM.

As for `N#Cc1cn(-c2ccc(C(=O)O)c(O)c2)cc1-c1ccc(F)cc1` [Example 320], the IC50 came to 10.6 nM.

Consider `Cc1ccc(-c2cn(-c3ccc(C(=O)O)c(O)c3)cc2C#N)cc1` [Example 317], for which the IC50 was 6.8 nM.

On to `COc1cn(-c2ccc(C(=O)O)c(O)c2)cc1C#N` [Example 282], for which the IC50 was found to be 5.3 nM.

`COc1ccccc1-c1cn(-c2cc(C(=O)O)ccn2)cc1C#N` [Example 366] displayed an IC50 of 29.3 nM.

In the case of `N#Cc1ccc(-c2cn(-c3ccc(C(=O)O)c(O)c3)cc2C#N)cc1` [Example 331], half-maximal inhibition (IC50) required 5.3 nM.

On to `N#Cc1cn(-c2ccc(C(=O)O)c(O)c2)cc1-c1ccccc1-c1ccccc1` [Example 328], for which the IC50 is 9.3 nM.

With `N#Cc1cn(-c2ccc(C(=O)O)c(O)c2)cc1-c1cccc(C(F)(F)F)c1` [Example 281], the IC50 is 41.2 nM.

In turn, `N#Cc1cn(-c2ccc(C(=O)O)c(O)c2)cc1-c1ccc2c(c1)OCCO2` [Example 305] came in with an IC50 of 7.3 nM.

`COc1ccc(-c2cn(-c3ccc(C(=O)O)c(O)c3)cc2C#N)cc1` [Example 316] came in with an IC50 of 9 nM.

`COc1ccc(/C=C/c2cn(-c3ccc(C(=O)O)c(O)c3)cc2C#N)cc1` [Example 295] returned an IC50 of 28.8 nM.

Compound `CCOc1cccc(-c2cn(-c3ccc(C(=O)O)c(O)c3)cc2C#N)c1` [Example 344] returned an IC50 of 13.5 nM.

Regarding `N#Cc1cn(-c2ccc(C(=O)O)c(O)c2)cc1-c1ccccc1OCc1ccccc1` [Example 332], half-maximal inhibition (IC50) was put at 51.5 nM.

With `CCc1c(-c2ccccc2)c(C#N)cn1-c1ccc(C(=O)O)c(O)c1` [Example 327], the half-maximal inhibitory concentration (IC50) was found to be 7.1 nM.

For the compound `COc1cccc(-c2cn(-c3cc(C(=O)O)ccn3)cc2C#N)c1` [Example 367], the IC50 amounted to 25 nM.

With `N#Cc1cn(-c2ccc(C(=O)O)c(O)c2)cc1-c1ccccc1Oc1ccccc1` [Example 303], the IC50 worked out at 49.4 nM.

`N#Cc1cn(-c2ccc(C(=O)O)c(O)c2)cc1-c1csc2ccccc12` [Example 291] showed an IC50 of 6.4 nM.

Consider `CSc1ccccc1-c1cn(-c2ccc(C(=O)O)c(O)c2)cc1C#N` [Example 349], for which the half-inhibitory concentration (IC50) stood at 6.4 nM.

On to `CC(C)(C)c1nn(-c2ccc(C(=O)O)c(O)c2)cc1C#N` [Example 352], for which inhibition was half-maximal at 3.2 nM (IC50).

`COc1ccc(-c2cn(-c3ccc(C(=O)O)c(O)c3)cc2C#N)cc1OC` [Example 285] yielded an IC50 of 3.9 nM.

Consider `N#Cc1cn(-c2ccc(C(=O)O)c(O)c2)cc1-c1cccc2ccccc12` [Example 325], for which the midpoint of inhibition, the IC50, lay at 13.1 nM.

For `COc1ccc(CCc2cn(-c3ccc(C(=O)O)c(O)c3)cc2C#N)cc1` [Example 296], the IC50 is 5.6 nM.

Take `N#Cc1cn(-c2ccc(C(=O)O)c(O)c2)cc1/C=C/c1ccccc1` [Example 288]: the IC50 was 10.4 nM.

With `N#Cc1cn(-c2ccc(C(=O)O)c(O)c2)cc1-c1ccc2c(c1)OCO2` [Example 321], the IC50 amounted to 10.9 nM.

For the compound `N#Cc1cn(-c2ccc(C(=O)O)c(O)c2)cc1-c1ccc(C(=O)O)cc1` [Example 337], the IC50 turned out to be 4 nM.

The assay is the same for the next values; noted with them: 0.02 units/mL, xanthine 200 μM, 10 minutes at room temperature, absorbance at 290 nm.
Compound `COc1ccc(-c2cn(-c3ccc(C(=O)O)c(O)c3)cc2C#N)cc1F` [Example 268] displayed an IC50 of 13.3 nM.

With `N#Cc1cn(-c2ccc(C(=O)O)cc2)cc1-c1cccc2c1OC(F)(F)O2` [Example 254], the IC50 was 6.9 nM.

As to `COc1ccc(-c2cn(-c3ccc(C(=O)O)c(O)c3)cc2C#N)c(OC)c1` [Example 266], the IC50 was 10.4 nM.

In turn, `CC(C)COc1cn(-c2ccc(C(=O)O)cc2)cc1C#N` [Example 233] had a 50% inhibitory concentration (IC50) of 2.3 nM.

In turn, `N#Cc1cn(-c2ccc(C(=O)O)cc2)cc1-c1ccccc1OCc1ccccc1Cl` [Example 177] displayed a half-inhibitory concentration (IC50) of 54.4 nM.

On to `N#Cc1cn(-c2ccc(C(=O)O)cc2)cc1-c1ccc(Oc2ccccc2)cc1` [Example 166], for which the IC50 worked out at 52.2 nM.

As to `COCCOc1ccccc1-c1cn(-c2ccc(C(=O)O)c(O)c2)cc1C#N` [Example 15, 4-{3-Cyano-4-[2-(2-methoxyethoxy)phenyl]pyrrole-1-yl}-2-hydroxy benzoic acid], the IC50 is 13.9 nM.

With `N#Cc1cn(-c2ccc(C(=O)O)cc2)cc1-c1ccccc1OCc1ccsc1` [Example 176], the IC50 is 13.7 nM.

For the compound `N#Cc1cn(-c2ccc(C(=O)O)cc2)cc1OCc1ccccc1` [Example 18, 4-(3-Cyano-4-benzyloxypyrrole-1-yl)benzoic acid], the IC50 stood at 7.1 nM.

In the case of `N#Cc1cn(-c2ccc(C(=O)O)cc2)cc1-c1cccc(OCc2cccc(F)c2)c1` [Example 190], the 50% inhibitory concentration (IC50) is 116 nM.

`N#Cc1cn(-c2ccc(C(=O)O)cc2)cc1COCc1ccccc1` [Example 248] yielded an IC50 of 11.9 nM.

`N#Cc1cn(-c2ccc(C(=O)O)cc2)cc1-c1ccccc1OCCO` [Example 152] displayed an IC50 of 4 nM.

In the case of `N#Cc1cn(-c2ccc(C(=O)O)cc2)cc1-c1cccc(Oc2ccccc2)c1` [Example 165], inhibition was half-maximal at 32.2 nM (IC50).

As for `CCCCc1c(C#N)cn(-c2ccc(C(=O)O)cc2)c1C` [Example 2, 4-(3-Butyl-4-cyano-2-methylpyrrole-1-yl)benzoic acid], the IC50 was determined as 17.1 nM.

`N#Cc1cn(-c2ccc(C(=O)O)cc2)cc1-c1cccc(OCCCO)c1` [Example 150] gave an IC50 of 5 nM.

As to `Cc1c(CC(C)C)c(C#N)cn1-c1ccc(C(=O)O)cc1` [Example 242], the IC50 worked out at 9 nM.

Regarding `N#Cc1cn(-c2ccc(C(=O)O)cc2)cc1-c1ccc(O)cc1` [Example 148], the IC50 is 2.5 nM.

Compound `N#Cc1cn(-c2ccc(C(=O)O)cc2)cc1C(=O)c1ccccc1` [Example 224] came in with an IC50 of 10.7 nM.

Consider `CNC(=O)c1cn(-c2ccc(C(=O)O)cc2)cc1C#N` [Example 225], for which the IC50 worked out at 7.2 nM.

As for `N#Cc1cn(-c2ccc(C(=O)O)cc2)cc1-c1ccccc1OCc1ccc(F)cc1` [Example 172], the IC50 turned out to be 49.1 nM.

Consider `Cc1c(F)cccc1-c1cn(-c2ccc(C(=O)O)c(O)c2)cc1C#N` [Example 275], for which 7.2 nM corresponded to half-maximal inhibition (IC50).

Take `Cc1ccc(-c2cn(-c3ccc(C(=O)O)c(O)c3)cc2C#N)c(C)c1` [Example 273]: the IC50 worked out at 14.6 nM.

The compound `COc1ccccc1COc1ccccc1-c1cn(-c2ccc(C(=O)O)cc2)cc1C#N` [Example 183] displayed an IC50 of 67.3 nM.

Take `N#Cc1cn(-c2ccc(C(=O)O)cc2)cc1/C=C/c1ccccc1` [Example 206]: the midpoint of inhibition, the IC50, lay at 7.1 nM.

Take `COc1cccc(COc2cccc(-c3cn(-c4ccc(C(=O)O)cc4)cc3C#N)c2)c1` [Example 198]: the IC50 was 111 nM.

Regarding `N#Cc1cn(-c2ccc(C(=O)O)cc2)cc1-c1ccccc1OCC(=O)O` [Example 158], the IC50 was found to be 5.1 nM.

The compound `N#Cc1cn(-c2ccc(C(=O)O)cc2)cc1CCc1ccccc1` [Example 207] had a 50% inhibitory concentration (IC50) of 3.8 nM.

In turn, `Cc1ccc(COc2ccccc2-c2cn(-c3ccc(C(=O)O)cc3)cc2C#N)cc1` [Example 169] displayed a 50% inhibitory concentration (IC50) of 56.8 nM.

With `N#Cc1cn(-c2ccc(C(=O)O)cc2)cc1-c1ccco1` [Example 244], the IC50 came to 3.6 nM.

Take `Cc1ccccc1COc1ccccc1-c1cn(-c2ccc(C(=O)O)cc2)cc1C#N` [Example 167]: the IC50 amounted to 83.8 nM.

With `N#Cc1cn(-c2ccc(C(=O)O)cc2)cc1-c1ccccc1O` [Example 146], the half-maximal inhibitory concentration (IC50) is 4 nM.

`N#Cc1cn(-c2ccc(C(=O)O)cc2)cc1CCC1CCCO1` (stereo not shown) [Example 259] showed an IC50 of 4.7 nM.

`N#Cc1cn(-c2ccc(C(=O)O)cc2)cc1-c1ccccc1OCc1ccccc1` [Example 155] had a concentration for half-maximal inhibition (IC50) of 52.4 nM.

Take `N#Cc1cn(-c2ccc(C(=O)O)cc2)cc1-c1ccccc1OCCCO` [Example 149]: inhibition was half-maximal at 6 nM (IC50).

Compound `N#Cc1cn(-c2ccc(C(=O)O)cc2)nc1OCc1ccccc1` [Example 7, 4-(3-Benzyloxy-4-cyanopyrazole-1-yl)benzoic acid] came in with an IC50 of 5.8 nM.

For the compound `COCOc1ccc(-c2cn(-c3ccc(C(=O)O)cc3)cc2C#N)cc1` [Example 145], the IC50 turned out to be 4.9 nM.

The compound `N#Cc1cn(-c2ccc(C(=O)O)c(O)c2)cc1-c1ccc(F)cc1F` [Example 267] gave an IC50 of 11.6 nM.

For `N#Cc1cn(-c2ccc(C(=O)O)c(F)c2)cc1-c1ccccc1` [Example 208], half-maximal inhibition (IC50) was put at 5.2 nM.

`N#Cc1ccc(-c2cn(-c3ccc(C(=O)O)cc3)cc2C#N)cc1` [Example 212]: the IC50 worked out at 5.4 nM.

Consider `N#Cc1cn(-c2ccc(C(=O)O)cc2)cc1-c1cccc(O)c1` [Example 147], for which half-maximal inhibition (IC50) required 2.1 nM.

In the case of `N#Cc1cn(-c2ccc(C(=O)O)cc2)cc1-c1cccc(C(=O)O)c1` [Example 217], the IC50 came out at 5 nM.

Turning to `N#Cc1cn(-c2ccc(C(=O)O)cc2)cc1-c1cccc(OCc2ccccc2)c1` [Example 156], the half-inhibitory concentration (IC50) came out at 52.9 nM.
